The first assay has as its system 843126-344-R-J1-PDC complex spheroid viability. Briefly: Anticancer human tumor 843126-344-R-J1-PDC patient-derived melanoma cell line growth inhibition [POLQ]. Particulars: second compound 10 µM; first compound 0.0316 µM; active compounds read low. Summed up: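 Three-cell-type spheroids modelling solid tumor plus stroma served as the readout system; POL inhibitors were tested individually and in combination, concentration ranges set by clinical Cmax where known.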
Turning to `CCc1cc2c(N3CCc4c(cc(Cn5ccnc5)cc4-c4cn(C)nc4C(F)(F)F)C3=O)ccnc2c(OC)n1` + Nc1ccc(C#CCN(C(=O)Cc2ncc(C(F)(F)F)cc2C(F)(F)F)c2ccc(F)cc2)nn1, the viability, T/C (in general, the ratio of treated to control) is 83%.

`COc1ccc([C@@H](O)c2cc(-c3ncnc4cc(N5CCOCC5)ccc34)c(F)cc2Cl)nn1` + Nc1ccc(C#CCN(C(=O)Cc2ncc(C(F)(F)F)cc2C(F)(F)F)c2ccc(F)cc2)nn1: the viability, T/C is 80.2%.

Staying with this assay, now noted: second compound 10 µM; first compound 0.1 µM; active compounds read low.
On to `C=CC(=O)N1CCN(c2nc(=O)n(-c3c(C)ccnc3C(C)C)c3nc(-c4c(O)cccc4F)c(F)cc23)C(C)C1` (configuration not stated) + Nc1ccc(C#CCN(C(=O)Cc2ncc(C(F)(F)F)cc2C(F)(F)F)c2ccc(F)cc2)nn1, for which the viability, T/C is 91.1%.

Turning to `CC(C)n1c(=O)n(C)c2cnc3cc(F)c(-c4ccc(OCCCN5CCCCC5)nc4)cc3c21` + Nc1ccc(C#CCN(C(=O)Cc2ncc(C(F)(F)F)cc2C(F)(F)F)c2ccc(F)cc2)nn1, the viability, T/C was 73.2%.

With `CC1COCCN1c1cc(-c2ccnn2C)c2ccnc(-c3ccn[nH]3)c2n1` (configuration not stated) + Nc1ccc(C#CCN(C(=O)Cc2ncc(C(F)(F)F)cc2C(F)(F)F)c2ccc(F)cc2)nn1, the viability, T/C was 66.4%.

As for `CCc1cc2c(N3CCc4c(cc(Cn5ccnc5)cc4-c4cn(C)nc4C(F)(F)F)C3=O)ccnc2c(OC)n1` + Nc1ccc(C#CCN(C(=O)Cc2ncc(C(F)(F)F)cc2C(F)(F)F)c2ccc(F)cc2)nn1, the viability, T/C is 76.6%.

Take `COc1ccc([C@@H](O)c2cc(-c3ncnc4cc(N5CCOCC5)ccc34)c(F)cc2Cl)nn1` + Nc1ccc(C#CCN(C(=O)Cc2ncc(C(F)(F)F)cc2C(F)(F)F)c2ccc(F)cc2)nn1: the viability, T/C is 94.8%.

Staying with this assay, now noted: second compound 10 µM; first compound 0.316 µM; active compounds read low.
As to `C=CC(=O)N1CCN(c2nc(=O)n(-c3c(C)ccnc3C(C)C)c3nc(-c4c(O)cccc4F)c(F)cc23)C(C)C1` (configuration not stated) + Nc1ccc(C#CCN(C(=O)Cc2ncc(C(F)(F)F)cc2C(F)(F)F)c2ccc(F)cc2)nn1, the viability, T/C was 84.1%.

In the case of `CC(C)n1c(=O)n(C)c2cnc3cc(F)c(-c4ccc(OCCCN5CCCCC5)nc4)cc3c21` + Nc1ccc(C#CCN(C(=O)Cc2ncc(C(F)(F)F)cc2C(F)(F)F)c2ccc(F)cc2)nn1, the viability, T/C is 86.8%.

For the compound `CC1COCCN1c1cc(-c2ccnn2C)c2ccnc(-c3ccn[nH]3)c2n1` (configuration not stated) + Nc1ccc(C#CCN(C(=O)Cc2ncc(C(F)(F)F)cc2C(F)(F)F)c2ccc(F)cc2)nn1, the viability, T/C was 52.8%.

Regarding `CCc1cc2c(N3CCc4c(cc(Cn5ccnc5)cc4-c4cn(C)nc4C(F)(F)F)C3=O)ccnc2c(OC)n1` + Nc1ccc(C#CCN(C(=O)Cc2ncc(C(F)(F)F)cc2C(F)(F)F)c2ccc(F)cc2)nn1, the viability, T/C was 75.8%.

For the compound `COc1ccc([C@@H](O)c2cc(-c3ncnc4cc(N5CCOCC5)ccc34)c(F)cc2Cl)nn1` + Nc1ccc(C#CCN(C(=O)Cc2ncc(C(F)(F)F)cc2C(F)(F)F)c2ccc(F)cc2)nn1, the viability, T/C is 85.4%.

Still in this assay, the particulars now being: second compound 10 µM; first compound 1 µM; active compounds read low.
Consider `C=CC(=O)N1CCN(c2nc(=O)n(-c3c(C)ccnc3C(C)C)c3nc(-c4c(O)cccc4F)c(F)cc23)C(C)C1` (configuration not stated) + Nc1ccc(C#CCN(C(=O)Cc2ncc(C(F)(F)F)cc2C(F)(F)F)c2ccc(F)cc2)nn1, for which the viability, T/C is 98.5%.

As for `CC(C)n1c(=O)n(C)c2cnc3cc(F)c(-c4ccc(OCCCN5CCCCC5)nc4)cc3c21` + Nc1ccc(C#CCN(C(=O)Cc2ncc(C(F)(F)F)cc2C(F)(F)F)c2ccc(F)cc2)nn1, the viability, T/C was 91.4%.

`CC1COCCN1c1cc(-c2ccnn2C)c2ccnc(-c3ccn[nH]3)c2n1` (configuration not stated) + Nc1ccc(C#CCN(C(=O)Cc2ncc(C(F)(F)F)cc2C(F)(F)F)c2ccc(F)cc2)nn1: the viability, T/C is 43.9%.

As to `CCc1cc2c(N3CCc4c(cc(Cn5ccnc5)cc4-c4cn(C)nc4C(F)(F)F)C3=O)ccnc2c(OC)n1` + Nc1ccc(C#CCN(C(=O)Cc2ncc(C(F)(F)F)cc2C(F)(F)F)c2ccc(F)cc2)nn1, the viability, T/C is 73.5%.

For the compound `COc1ccc([C@@H](O)c2cc(-c3ncnc4cc(N5CCOCC5)ccc34)c(F)cc2Cl)nn1` + Nc1ccc(C#CCN(C(=O)Cc2ncc(C(F)(F)F)cc2C(F)(F)F)c2ccc(F)cc2)nn1, the viability, T/C is 82.7%.

Staying with this assay, now noted: second compound 10 µM; first compound 3.16 µM; active compounds read low.
`C=CC(=O)N1CCN(c2nc(=O)n(-c3c(C)ccnc3C(C)C)c3nc(-c4c(O)cccc4F)c(F)cc23)C(C)C1` (configuration not stated) + Nc1ccc(C#CCN(C(=O)Cc2ncc(C(F)(F)F)cc2C(F)(F)F)c2ccc(F)cc2)nn1: the viability, T/C is 95.7%.

With `CC(C)n1c(=O)n(C)c2cnc3cc(F)c(-c4ccc(OCCCN5CCCCC5)nc4)cc3c21` + Nc1ccc(C#CCN(C(=O)Cc2ncc(C(F)(F)F)cc2C(F)(F)F)c2ccc(F)cc2)nn1, the viability, T/C is 78.3%.

`CC1COCCN1c1cc(-c2ccnn2C)c2ccnc(-c3ccn[nH]3)c2n1` (configuration not stated) + Nc1ccc(C#CCN(C(=O)Cc2ncc(C(F)(F)F)cc2C(F)(F)F)c2ccc(F)cc2)nn1: the viability, T/C was 36.9%.

In the case of `CCc1cc2c(N3CCc4c(cc(Cn5ccnc5)cc4-c4cn(C)nc4C(F)(F)F)C3=O)ccnc2c(OC)n1` + Nc1ccc(C#CCN(C(=O)Cc2ncc(C(F)(F)F)cc2C(F)(F)F)c2ccc(F)cc2)nn1, the viability, T/C was 80.2%.

Consider `COc1ccc([C@@H](O)c2cc(-c3ncnc4cc(N5CCOCC5)ccc34)c(F)cc2Cl)nn1` + Nc1ccc(C#CCN(C(=O)Cc2ncc(C(F)(F)F)cc2C(F)(F)F)c2ccc(F)cc2)nn1, for which the viability, T/C is 78.2%.

Staying with this assay, now noted: second compound 10 µM; first compound 10 µM; active compounds read low.
As for `C=CC(=O)N1CCN(c2nc(=O)n(-c3c(C)ccnc3C(C)C)c3nc(-c4c(O)cccc4F)c(F)cc23)C(C)C1` (configuration not stated) + Nc1ccc(C#CCN(C(=O)Cc2ncc(C(F)(F)F)cc2C(F)(F)F)c2ccc(F)cc2)nn1, the viability, T/C was 81.2%.

Take `CC(C)n1c(=O)n(C)c2cnc3cc(F)c(-c4ccc(OCCCN5CCCCC5)nc4)cc3c21` + Nc1ccc(C#CCN(C(=O)Cc2ncc(C(F)(F)F)cc2C(F)(F)F)c2ccc(F)cc2)nn1: the viability, T/C was 67.8%.

Take `CC1COCCN1c1cc(-c2ccnn2C)c2ccnc(-c3ccn[nH]3)c2n1` (configuration not stated) + Nc1ccc(C#CCN(C(=O)Cc2ncc(C(F)(F)F)cc2C(F)(F)F)c2ccc(F)cc2)nn1: the viability, T/C is 29.1%.

Regarding `CCc1cc2c(N3CCc4c(cc(Cn5ccnc5)cc4-c4cn(C)nc4C(F)(F)F)C3=O)ccnc2c(OC)n1` + Nc1ccc(C#CCN(C(=O)Cc2ncc(C(F)(F)F)cc2C(F)(F)F)c2ccc(F)cc2)nn1, the viability, T/C was 55.9%.

As to `COc1ccc([C@@H](O)c2cc(-c3ncnc4cc(N5CCOCC5)ccc34)c(F)cc2Cl)nn1` + Nc1ccc(C#CCN(C(=O)Cc2ncc(C(F)(F)F)cc2C(F)(F)F)c2ccc(F)cc2)nn1, the viability, T/C was 62.6%.

The values above are taken from PubChem BioAssay AID1963837 (Molecular Pharmacology Branch, DTP, NCI, 2024).
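Also: spheroids exposed to drugs for seven days before readout.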
